# Measurements taken from patent US20210393742A1, “LONG-ACTING INTERLEUKIN-15 RECEPTOR AGONIST IN COMBINATION WITH ANOTHER PHARMACOLOGICALLY ACTIVE AGENT” (Nektar Therapeutics, priority 2018, published 2021).
# Assays:
# [1] = tested on: NK cells; assay: NKG2A and NKG2D surface expression on bone marrow NK cells of Daudi lymphoma bearing mice (Example 4); assay type: in vivo; conditions: bone marrow day 24; Conjugate 1 0.3 mg/kg SC days 14 and 21; antibody 0.5 mg/kg IP day 14
# Experimental: Balb/c mice bearing Daudi B cell lymphoma tumors in the bone marrow (n=6/group) were intraperitoneally administered a single 0.5 mg/kg dose of the human CD38 protein targeting clinical antibody daratumumab (DARZALEX®, Janssen Biotech) or a nonspecific control antibody with a matching isotype on day 14 after Daudi cell intravenous inoculation. Additional groups were administered mono(methoxyPEG-N-butanamide)40 kD interleukin-15 (Conjugate 1) subcutaneously at a dose of 0.3 mg/kg as a single agent on days 14 and 21 after Daudi cell inoculation, or administered a combination treatment of Conjugate 1 administered subcutaneously at doses of 0.03 mg/kg or 0.3 mg/kg on days 14 and 21 after Daudi cell inoculation and daratumumab administered intraperitoneally at a dose of 0.5 mg/kg on day 14 after Daudi cell inoculation.
# Three days following the second Conjugate 1 administration (day 24 after Daudi inoculation), bone marrow was collected and the NK cell fraction was measured by flow cytometry in total bone marrow. Expression of the cell surface activating receptor NKG2D and the inhibitory checkpoint receptor NKG2A are shown in FIGS. 7A and 7B, respectively.
# [2] = tested on: human PBMCs; assay: Secreted granzyme B in PBMC culture media by ELISA (Example 6); assay type: cell-based; conditions: overnight, Conjugate 1 1 μg/ml, plate coated with hIgG 0.1 mg/ml
# Experimental: Functional activation of human NK cells within a human peripheral blood mononuclear cells (PBMCs) preparation was induced in vitro. PBMCs from two donors were incubated overnight in the presence of (i) mono(methoxyPEG-N-butanamide)40 kD interleukin-15 (Conjugate 1) at a concentration of 1 μg/ml; (ii) on cell culture plastic that had been prior coated overnight with human total immunoglobulin G (hIgG) solution at a concentration of 0.1 mg/ml (iii) on cell culture plastic that had been prior coated overnight with human total immunoglobulin G (hIgG) solution at a concentration of 0.1 mg/ml and in the presence of Conjugate 1 at a concentration of 1 μg/ml; or (iv) on regular cell culture plastic.
# After the incubation period, NK cell activation was measured with flow cytometry by measuring the increase of median fluorescence intensity (MFI) signal of CD69 (FIG. 9A) and CD107a (FIG. 9B) detecting antibodies on the surface of CD56+ human NK cells within the PBMCs. Functional activation of NK cells was assessed by calculating the fold-change in MFI when comparing control condition where the cells were exposed to neither hIgG nor Conjugate 1. […] Secreted granzyme B concentration also indicative of NK cell activation in the culture media at the end of the experiment was measured by ELISA (FIG. 9C).
# [3] = tested on: human multiple myeloma RPMI-8226 cells; assay: NK cell cytotoxicity (ADCC) against daratumumab pre-coated RPMI-8226 cells (Example 9); assay type: cell-based; conditions: NK cells primed with 1000 ng/mL overnight; targets pre-coated with daratumumab 100 ng/mL; E:T 10:1, 3 hr
# Experimental: Human NK cells were magnetically sorted from normal donor PBMCs using negative selection. NK cells were seeded in a 96-well U-bottom plate at a density of 400,000 cells/well. NK cells were stimulated with 1000 ng/mL of a long-acting IL-15 receptor agonist (mono(mPEG-butanamide)IL-15) (+) or left unstimulated (−) in complete RPMI-1640 media supplemented with 10% fetal bovine serum (FBS) and 1% antibiotic/antimycotic overnight at 37° C. in 5% CO2.
# The human multiple myeloma RPMI-8226 cells (ATCC #CCL-155) were washed in PBS and stained with 0.15 μM CFSE for 5 min at 37° C. The tumor cells were pre-coated with 100 ng/mL daratumumab (+) for 1 hr at 37° C. where indicated. The stimulated NK cells (effector cells) and the pre-coated CFSE-labeled tumor cells (target cells) were co-cultured in an E:T ratio of 10:1 for 3 hr at 37° C. in 5% CO2. Following incubation, cells were washed in flow staining buffer, Fc-blocked for 15 min at 4° C., and surface-stained (CD45, CD56, CD3-fluorescently conjugated antibodies). The cells were washed in PBS and incubated in 7-aminoactinomycin (7-AAD) viability stain for 30 minutes at 4° C. before acquiring for flow cytometric analysis using a Fortessa (BD). The percentage of 7-AAD+CFSE+ target cells from total cell population is the percentage for dead tumor cells.
# [4] = tested on: Daudi B cell lymphoma; assay: NK cell counts, Daudi cell counts and granzyme B in bone marrow, Daudi xenograft model, combination with daratumumab (Example 2); assay type: in vivo, mice
# Experimental: SCID mice (N=6/group) were intravenously inoculated with 1×10^7 Daudi cells on Day 0 and treated with a single dose of the anti-human CD38 antibody, daratumumab (0.5 mg/kg IP, 14 days following Daudi cell inoculation) and two doses of mono(methoxyPEG-N-butanamide)interleukin-15 (0.3 mg/kg SC, one dose at each of 14 and 21 days after inoculation). Mice were also treated with the single agent therapies: daratumumab (0.5 mg/kg IP, 14 days following Daudi cell inoculation) or two doses of mono(methoxyPEG-N-butanamide)40 kD interleukin-15 (0.3 mg/kg SC, 14 and 21 days after inoculation).
# (One-way ANOVA, Tukey's multiple comparison test).
# [5] = tested on: KHYG-1 cells; assay: KHYG-1 cell proliferation, CellTiter-Glo 2.0 (Example 7); assay type: cell-based, human; conditions: 48 hours
# Experimental: KHYG-1 cells were cultured in RPMI-1640 medium supplemented with 20% FBS, 2 mM L-glutamine, and 20 ng/mL IL-2 (Complete growth medium) in a humidified incubator at 37° C. and 5% CO2.
# One day prior to treatment with test compounds, cells were seeded at a density of 500,000 viable cells/ml in Complete growth medium and incubated overnight under normal growth conditions. On the day of the assay, KHYG-1 cells were washed 3 times with DPBS, resuspended in assay medium (RPMI-1640 medium supplemented with 20% FBS, 2 mM L-glutamine), and incubated for 4-5 hours at 37° C., 5% CO2. Cells were adjusted to the appropriate density (8×10^5 cells/mL) in assay medium and 50,000 cells/well were aliquoted into wells of a 96-well plate (View-Plate 96, Perkin-Elmer).
# Stimulation of KHYG-1 cells was initiated by the transfer of IL-15 or a long-acting IL-15 receptor agonist (mono(mPEG-butanamide)IL-15) to duplicate wells containing cells, followed by 48 hours incubation at 37° C., 5% CO2.
# Cell growth in each well was measured by monitoring ATP levels using CellTiter-Glo 2.0, following the manufacturer's instructions. The effect of the long-acting IL-15 receptor agonist on KHYG-1 cell proliferation was compared to IL-15 following 48-hour treatment using CellTiter-Glo 2.0 with the results shown in FIG. 10B.
substance,measurement,setting,value
mono(methoxyPEG-N-butanamide)40 kD interleukin-15 [Conjugate 1],"% NK cells expressing NKG2A (mean, n = 6)",[1],73.70%
same,"% NK cells expressing NKG2D (mean, n = 6)",[1],2.157%
same,Granzyme B concentration,[2],56 pg/mL
same,Granzyme B concentration fold-change relative to no stimulation control,[2],4.1 fold
same,"ADCC, % 7-AAD+ target cells",[3],enhanced ADCC of daratumumab pre-coated multiple myeloma cells
same,granzyme B expression in bone marrow NK cells,[4]; alone or in combination with daratumumab,increase granzyme B expression
same,increase in NK cell count in bone marrow,"[4]; day 24, agonist 0.3 mg/kg SC days 14 and 21, daratumumab 0.5 mg/kg IP day 14",10 fold
same,maximal proliferative response,[5],comparable to the response produced by IL-15
